Results: the supplement of paper PMC10307832

Assays:
Test in all cases: relative viability (nuclei count vs DMSO), 5 days (fraction); higher = more cells survive
TPCA-1 + Phenformin = compound: C1=CC(=CC=C1C2=CC(=C(S2)NC(=O)N)C(=O)N)F [TPCA-1] + N=C(N)NC(=N)NCCc1ccccc1 [Phenformin] (partner 250 µM)
Procedure, shortened: (§1)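 Nuclei were stained with Hoechst during a one-step fixation (final 0.05% Triton X-100, 1% formaldehyde, 1 ug/ml Hoechst) carried out 5 days after dosing, then counted on 4× images. The cells, lung cancer lines in 1536-well plates, had been dosed by pin tool the day after seeding with one drug alone or a fixed anchor-drug dose plus five library-drug doses (not always all listed) in √10 steps. Relative viability is the nuclei count in treated wells divided by that in vehicle wells, and each value is the median of duplicate plates.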

TPCA-1 + Crizotinib = compound: C1=CC(=CC=C1C2=CC(=C(S2)NC(=O)N)C(=O)N)F [TPCA-1] + C[C@@H](Oc1cc(-c2cnn(C3CCNCC3)c2)cnc1N)c1c(Cl)ccc(F)c1Cl [Crizotinib] (partner 1 µM)
Procedure, shortened: as §1

[1] = compound: C1/C(=C\C2=CC=CS2)/C(=O)/C(=C/C3=CC=CS3)/C1 + N=C(N)NC(=N)NCCc1ccccc1 [Phenformin] (partner 250 µM)
Procedure, shortened: as §1

[2] = compound: C[C@]12O[C@H](C[C@]1(O)CO)n1c3ccccc3c3c4c(c5c6ccccc6n2c5c31)CNC4=O [Lestaurtinib] + Cc1cc(Nc2cc(N3CCN(C)CC3)nc(Sc3ccc(NC(=O)C4CC4)cc3)n2)n[nH]1 [Tozasertib] (partner 0.1 µM)
Procedure, shortened: as §1

Cell Line | relative viability (TPCA-1 + Phenformin; first compound 0.04 µM) | relative viability (TPCA-1 + Phenformin; first compound 0.1265 µM) | relative viability (TPCA-1 + Phenformin; first compound 0.4 µM) | relative viability (TPCA-1 + Phenformin; first compound 1.265 µM) | relative viability (TPCA-1 + Phenformin; first compound 4 µM) | relative viability (TPCA-1 + Crizotinib; first compound 0.04 µM) | relative viability (TPCA-1 + Crizotinib; first compound 0.1265 µM) | relative viability (TPCA-1 + Crizotinib; first compound 0.4 µM) | relative viability (TPCA-1 + Crizotinib; first compound 1.265 µM) | relative viability (TPCA-1 + Crizotinib; first compound 4 µM) | relative viability ([1]; first compound 0.2 µM) | relative viability ([1]; first compound 0.6325 µM) | relative viability ([1]; first compound 2 µM) | relative viability ([1]; first compound 6.325 µM) | relative viability ([1]; first compound 20 µM) | relative viability ([2]; first compound 0.005 µM) | relative viability ([2]; first compound 0.01581 µM) | relative viability ([2]; first compound 0.05 µM) | relative viability ([2]; first compound 0.1581 µM) | relative viability ([2]; first compound 0.5 µM)
NCI-H2170 | 0.478 | 0.401 | 0.424 | 0.402 | 0.362 | 1.33 | 1.15 | 1.16 | 1.13 | 0.583 | 0.466 | 0.484 | 0.426 | 0.405 | 0.408 | 0.72 | 0.848 | 0.696 | 0.45 | 0.219
NCI-H522 | 0.67 | 0.611 | 0.504 | 0.776 | 0.621 | – | – | – | – | – | 0.677 | 0.649 | 0.662 | 0.644 | 0.651 | 0.571 | 0.536 | 0.627 | 0.528 | 0.496
LCLC-97TM1 | 0.44 | 0.394 | 0.414 | 0.294 | 0.386 | 0.347 | 0.325 | 0.568 | 0.28 | 0.15 | 0.389 | 0.473 | 0.437 | 0.476 | 0.482 | 0.317 | 0.177 | 0.0893 | 0.133 | 0.171
NCI-H1299 | – | – | – | – | – | 0.95 | 0.943 | 0.907 | 0.972 | 0.948 | – | – | – | – | – | – | – | – | – | –
NCI-H3122 | 0.383 | 0.401 | 0.409 | 0.374 | 0.404 | 0.281 | 0.268 | 0.278 | 0.291 | 0.223 | 0.442 | 0.377 | 0.41 | 0.307 | 0.333 | 0.56 | 0.553 | 0.421 | 0.366 | 0.176
NCI-H1395 | 0.445 | 0.488 | 0.449 | 0.436 | 0.499 | – | – | – | – | – | 0.448 | 0.484 | 0.505 | 0.483 | 0.465 | 0.773 | 0.791 | 0.64 | 0.721 | 0.46
NCI-H2009 | 0.542 | 0.486 | 0.512 | 0.429 | 0.44 | 1.06 | 1.05 | 1.03 | 1.05 | 0.891 | 0.511 | 0.52 | 0.493 | 0.453 | 0.426 | 0.783 | 0.832 | 0.625 | 0.454 | 0.359
NCI-H1651 | 0.361 | 0.295 | 0.368 | 0.327 | 0.262 | 0.853 | 0.841 | 0.892 | 0.812 | 0.747 | 0.352 | 0.372 | 0.446 | 0.26 | 0.323 | 0.706 | 0.756 | 0.771 | 0.694 | 0.492
HARA | 0.476 | 0.45 | 0.469 | 0.484 | 0.162 | 0.985 | 0.995 | 1.11 | 1.01 | 0.56 | 0.449 | 0.452 | 0.481 | 0.444 | 0.407 | 0.126 | 0.106 | 0.111 | 0.108 | 0.102
NCI-H1944 | 0.238 | 0.202 | 0.217 | 0.176 | 0.189 | 1.18 | 1.03 | 1.02 | 1.02 | 0.682 | 0.232 | 0.207 | 0.2 | 0.18 | 0.182 | 0.262 | 0.276 | 0.234 | 0.236 | 0.201
NCI-H2347 | 0.652 | 0.331 | 0.451 | 0.262 | 0.264 | 0.806 | 0.557 | 0.676 | 0.553 | 0.521 | 0.362 | 0.592 | 0.283 | – | 0.49 | 1.15 | 0.64 | 0.493 | 0.412 | 0.537
201T | 0.484 | 0.454 | 0.425 | 0.378 | 0.426 | 1.04 | 0.998 | 1.08 | 1.02 | 1.03 | 0.495 | 0.431 | 0.478 | 0.425 | 0.455 | 1 | 0.984 | 1.05 | 0.955 | 0.354
Calu-6 | – | – | – | – | – | 0.861 | 0.789 | 0.767 | 0.669 | 0.373 | – | – | – | – | – | – | – | – | – | –
NCI-H1703 | – | – | – | – | – | 0.585 | 0.57 | 0.594 | 0.396 | 0.459 | – | – | – | – | – | – | – | – | – | –
NCI-H2342 | 0.612 | 0.538 | 0.574 | 0.504 | 0.47 | – | – | – | – | – | 0.535 | 0.63 | 0.689 | 0.524 | 0.519 | 0.528 | 0.502 | 0.538 | 0.418 | 0.418
NCI-H1792 | 0.326 | 0.246 | 0.322 | 0.217 | 0.158 | 1.01 | 0.952 | 1.02 | 0.928 | 0.584 | 0.514 | 0.273 | 0.67 | 0.287 | 0.322 | – | – | – | – | –
NCI-H1623 | 0.592 | 0.522 | 0.62 | 0.574 | 0.4 | – | – | – | – | – | 0.644 | 0.577 | 0.502 | 0.599 | 0.59 | 0.42 | 0.722 | 0.415 | 0.418 | 0.424
SW 900 | 0.79 | 0.577 | 0.518 | 0.395 | 0.529 | – | – | – | – | – | 0.613 | 0.551 | 0.875 | 0.69 | 0.541 | 0.462 | 0.683 | 0.503 | 0.703 | 0.538
NCI-H1648 | – | – | – | – | – | – | – | – | – | – | – | – | – | – | – | 0.377 | 0.649 | 0.391 | 0.487 | 0.49
NCI-H1793 | 0.364 | – | 0.297 | 0.402 | 0.261 | – | – | – | – | – | 0.375 | 0.351 | 0.515 | 0.337 | 0.355 | 0.335 | 0.279 | 0.347 | 0.265 | 0.255
IA-LM | – | – | – | – | – | 0.767 | 0.762 | 0.985 | 0.667 | 0.657 | – | – | – | – | – | – | – | – | – | –
A549 | 0.206 | 0.162 | 0.151 | 0.141 | 0.0882 | 0.898 | 0.748 | 0.773 | 0.522 | 0.331 | 0.208 | 0.196 | 0.154 | – | 0.17 | – | – | – | – | –
